Measured values as given in ChEMBL document CHEMBL1126470, “Toward developing peptidomimetics: Successful replacement of backbone amide bonds in tetrapeptide-based CCK-A receptor agonists” (Bioorg Med Chem Lett, 1993).

Legend:
[1] = target: T1, Cholecystokinin receptor type A (Cavia porcellus, UniProt Q63931); assay: Displacement of [125I]Bolton-Hunter-CCK-8 from guinea pig pancreas Cholecystokinin type A receptor
T1 sequence (Q63931 whole entry): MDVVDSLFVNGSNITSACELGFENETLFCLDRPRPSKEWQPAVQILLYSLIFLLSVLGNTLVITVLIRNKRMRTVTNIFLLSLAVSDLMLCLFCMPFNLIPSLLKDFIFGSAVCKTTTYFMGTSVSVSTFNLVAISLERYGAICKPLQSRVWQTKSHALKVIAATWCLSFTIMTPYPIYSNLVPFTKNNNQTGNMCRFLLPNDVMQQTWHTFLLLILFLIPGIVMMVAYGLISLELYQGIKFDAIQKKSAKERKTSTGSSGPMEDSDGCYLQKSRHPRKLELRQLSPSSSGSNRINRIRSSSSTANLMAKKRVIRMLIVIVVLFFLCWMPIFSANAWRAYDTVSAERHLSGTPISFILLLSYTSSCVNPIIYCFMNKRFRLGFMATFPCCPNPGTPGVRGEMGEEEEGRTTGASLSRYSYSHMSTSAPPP

[2] = species: Cavia porcellus; assay: Compound was evaluated for its ability to stimulate PI hydrolysis in guinea pig pancreas relative to maximal response elicited by CCK-8; assay type: functional

Structure (SMILES) | IC50 [1] [nM] | Max response [2] [%]
CSCC[C@H](NC(=O)[C@H](Cc1ccc(OS(=O)(=O)O)cc1)NC(=O)[C@@H](N)CC(=O)O)C(=O)NCC(=O)N[C@@H](Cc1c[nH]c2ccccc12)C(=O)N[C@@H](CCSC)C(=O)N[C@@H](CC(=O)O)C(=O)N[C@@H](Cc1ccccc1)C(N)=O [SINCALIDE] |  | 100
CSCC[C@H](NC(=O)[C@H](Cc1c[nH]c2ccccc12)NC(=O)OC(C)(C)C)C(=O)N[C@@H](CC(=O)O)C(=O)N[C@@H](Cc1ccccc1)C(N)=O |  | 100
CC(C)(C)OC(=O)N[C@H](CNN[C@@H](CCCCNC(=O)/C=C/c1ccc(O)cc1)C(=O)N[C@@H](CC(=O)O)C(=O)N[C@@H](Cc1ccccc1)C(N)=O)Cc1c[nH]c2ccccc12 | 930 | 5.6
Cc1ccccc1NC(=O)NCCCC[C@@H](CNN[C@@H](CC(=O)O)C(=O)N(C)[C@@H](Cc1ccccc1)C(N)=O)NC(=O)[C@H](Cc1c[nH]c2ccccc12)NC(=O)OC(C)(C)C | 1600 | 0

The next lines start with results.

IC50 [1] [nM] | Structure (SMILES) | Max response [2] [%]
40 | CC(C)(C)OC(=O)N[C@@H](Cc1c[nH]c2ccccc12)C(=O)N[C@@H](CCCCNC(=O)/C=C\c1ccc(O)cc1)CNN[C@@H](CC(=O)O)C(=O)N[C@@H](Cc1ccccc1)C(N)=O | 44
130 | CC(C)(C)OC(=O)N[C@@H](Cc1c[nH]c2ccccc12)C(=O)N[C@@H](CCCCNC(=O)/C=C\c1ccc(O)cc1)C(=O)N[C@H](CNN[C@@H](Cc1ccccc1)C(N)=O)CC(=O)O | 0
250 | CN(C(=O)[C@H](CC(=O)O)NNC[C@H](CCCCNC(=O)/C=C\c1ccc(O)cc1)NC(=O)[C@H](Cc1c[nH]c2ccccc12)NC(=O)OC(C)(C)C)[C@@H](Cc1ccccc1)C(N)=O | 28
300 | Cc1ccccc1NC(=O)NCCCC[C@H](NC(=O)[C@H](Cc1c[nH]c2ccccc12)NC(=O)OC(C)(C)C)C(=O)N[C@H](CNN[C@@H](Cc1ccccc1)C(N)=O)CC(=O)O | 6.3
470 | Cc1ccccc1NC(=O)NCCCC[C@H](NNC[C@H](Cc1c[nH]c2ccccc12)NC(=O)OC(C)(C)C)C(=O)N[C@@H](CC(=O)O)C(=O)N[C@@H](Cc1ccccc1)C(N)=O | 8.9
